The text below walks through data of patent US20220370470A1 (WisTa Laboratories Ltd., priority 2019, published 2022).

SMILES strings stand for the structures. Where a name gives a salt, the structure may show the parent alone.

The subject of one experiment is synaptophysin. The experiment can be described thus: Immunohistochemistry of synaptophysin, wild-type mice. The format is in vivo. The protocol:
FIG. 1. Treatment effects of LMTM alone or following chronic pretreatment with rivastigmine in wild-type mice on hippocampal levels of acetylcholine (A) or synaptophysin levels measured immunohistochemically as the mean in hippocampus, visual cortex, diagonal band and septum (B). (**, p<0.01; ***, p<0.001).
(§1) Wild-type and L1 mice (n=7-16 for each group) were pre-treated with rivastigmine (0.1 or 0.5 mg/kg/day) or memantine (2 or 20 mg/kg/day) or vehicle for 5 weeks by gavage. For the following 6 weeks, LMTM (5 and 15 mg/kg) or vehicle were added to this daily treatment regime, also by gavage. Animals were tested behaviourly during weeks 10 and 11 using a problem solving task in the open field water maze and then sacrificed for immunohistochemical and other tissue analyses.
(§2) Translating doses from mice to humans requires consideration of a number of factors. […] The higher dose of 15 mg/kg/day is generally required for LMTM to be fully effective in the L1 mouse model (Melis et al., 2015a). […] Tissue sectioned for immunohistochemistry was labelled with antibody and processed using Image J to determine protein expression densitometrically. Data are presented as Z-score transformations without units.

The test system of experiment [1] is acetylcholine (ACh) levels in hippocampus. The experiment can be described thus: ACh levels in hippocampus, microdialysis probe and HPLC, wild-type mice. The format is in vivo. Here is the method:
For measurement of acetylcholine (ACh) levels in hippocampus, animals (wild-type or L1) were treated with LMTM (5 mg/kg/day for 2 weeks) after prior treatment for 2 weeks with or without rivastigmine (0.5 mg/kg/day). Rivastigmine was administered subcutaneously with an Alzet minipump whereas LMTM was administered by oral gavage. Levels of ACh were measured in hippocampus using an implanted microdialysis probe and HPLC analysis of the extracellular fluid.
Data are presented as group averages and standard errors of mean and were analysed using parametric statistics, with alpha set to 0.05.

The test system of experiment [2] is SNARE complex proteins (SNAP25, syntaxin and VAMP2). The experiment can be described thus: Immunohistochemistry of SNARE complex proteins, wild-type mice. Format: in vivo. Details: key: ‘—’ indicates no effect. The conditions noted are these: LMTM 5 or 15 mg/kg/day alone or following chronic rivastigmine 0.1 or 0.5 mg/kg/day, approximate rounded percentages. The protocol: as §1, §2

For the next experiment, the system named is mitochondrial complex IV. The experiment can be described thus: Mitochondrial complex IV activity, wild-type mice. The following applies: LMTM 5 or 15 mg/kg/day alone or following chronic rivastigmine 0.1 or 0.5 mg/kg/day, approximate rounded percentages. Format: in vivo. The protocol:
as §1

The test system of experiment [3] is ACh levels in the hippocampus. The experiment can be described thus: Hippocampal ACh levels with scopolamine blocking M2/M4 negative feedback receptors. The format is in vivo, wild type mice.
The test system of a further experiment is α-synuclein. The experiment can be described thus: Immunohistochemistry of α-synuclein, wild-type mice. The format is in vivo. The following applies: LMTM 5 or 15 mg/kg/day alone or following chronic rivastigmine 0.1 or 0.5 mg/kg/day, approximate rounded percentages. Also on record: key: ‘—’ indicates no effect. Here is the method:
as §1, §2

For a further experiment, the system named is wild-type mice. The experiment can be described thus: Behaviour, problem solving task in the open field water maze, wild-type mice. The format is in vivo. The following applies: LMTM 5 or 15 mg/kg/day alone or following chronic rivastigmine 0.1 or 0.5 mg/kg/day, approximate rounded percentages. Here is the method:
as §1

As to `CN(C)c1ccc2c(c1)Sc1cc(N(C)C)ccc1N2` [LMTM, hydromethylthionine mesylate], the “change in mean synaptophysin levels” value in the experiment with synaptophysin (LMTM given against a background of prior treatment with rivastigmine) was “statistically significant reduction of the same magnitude”. The “increase in mean synaptophysin levels” value with synaptophysin (hippocampus, visual cortex, diagonal band and septum, LMTM treatment alone) is 3 fold. Moreover, in experiment [1] (LMTM after prior treatment with rivastigmine (0.5 mg/kg/day)), the “reduction in basal ACh levels in hippocampus” value is on record as 30%. The “increase in basal ACh levels in hippocampus” value in experiment [1] (LMTM treatment alone (5 mg/kg/day for 2 weeks), significant) is reported as 2 fold. Also, the SNARE complex entry in experiment [2] was “—”. In the experiment with mitochondrial complex IV, the “Mitochondrial complex IV” value was “did not show any increase and —”. Moreover, the “increase in ACh levels in scopolamine experiments” value in experiment [3] (wild type mice, scopolamine blocking M2/M4 negative feedback receptors, 100 nanomolar rivastigmine in perfusion fluid) is listed as “less than that seen with rivastigmine alone”. In addition, in the experiment on α-synuclein, the α-Synuclein result is on record as “—”. Also, the Behaviour result with wild-type mice is “not associated with improvement in spatial recognition memory and —”.

On to `CN1[C@@H]2C[C@@H](OC(=O)[C@H](CO)c3ccccc3)C[C@H]1[C@@H]1O[C@@H]12` [scopolamine, reference compound], for which the “rise in ACh levels” value in experiment [3] (hippocampus, scopolamine 1 μM added to the perfusion fluid containing 100 nanomolar rivastigmine) is reported as 3-5 fold.
